Laboratory results reported in the NIST ThermoML archive (doi:10.1021/acs.jced.8b00250).
± gives the expanded uncertainty stated by the source.

Test: mn = molality of the nth substance listed, in mol/kg
Conditions: 298.15 K, 101.3 kPa, Liquid, Alternating current cell with electrodes

CCCCC(CC)COC(=O)CC(C(=O)OCC(CC)CCCC)S(=O)(=O)[O-].[Na+] (stereo unspecified) [sodium bis(2-ethylhexyl) sulfosuccinate] + O
Conditions	electrical conductivity [S/m]
m1 = 0.1687	0.00147 ± 5.9e-05
m1 = 0.5229	0.00389 ± 0.00016
m1 = 0.8008	0.00578 ± 0.00023
m1 = 1.108	0.00786 ± 0.00031
m1 = 1.374	0.00965 ± 0.00039
m1 = 1.663	0.0116 ± 0.00046
m1 = 2.015	0.0139 ± 0.00056
m1 = 2.327	0.0161 ± 0.00065
m1 = 2.661	0.0184 ± 0.00074
m1 = 3.026	0.0213 ± 0.0009
m1 = 3.398	0.0239 ± 0.001
m1 = 3.654	0.0258 ± 0.001
m1 = 3.95	0.0279 ± 0.0011
m1 = 4.202	0.0296 ± 0.0012
m1 = 4.434	0.0313 ± 0.0013
m1 = 4.65	0.0328 ± 0.0013
m1 = 4.896	0.0345 ± 0.0014
m1 = 5.165	0.0363 ± 0.0015
m1 = 5.513	0.0387 ± 0.0015
m1 = 5.782	0.0405 ± 0.0016

O [water] + CCCCC(CC)COC(=O)CC(C(=O)OCC(CC)CCCC)S(=O)(=O)[O-].[Na+]
Conditions	electrical conductivity [S/m]
m2 = 0	0.000327 ± 1.3e-05
